# Experimental data as given in patent US20060094783A1 (Tava Pharmaceutical Industries, Ltd., priority 1990, published 2006).
# Several values for one entry are separate records, joined by “and”; a condition that tells them apart may be missing. Identical values can stand only once. Counter-ions that a name gives are not always drawn. Like-named read-outs stand apart in the source and are kept apart here.
# Key:
# MCA-occluded Wistar rats [1] = tested on: MCA-occluded Wistar rats
# Procedure: (§1) Middle cerebral artery occlusion (MCAO) in the rat. […] Male Wistar rats (Olac England-Jerusalem) 300-400 g each were anesthetized with a solution of Equitesine administered i.p. at a dose of 3 mL/kg. Equitesine consists of 13.5 mL sodium pentothal solution (60 mg/mL), 3.5 g chloral hydrate, 1.75 g MgSO4, 33 mL propylene glycol, 8.3 mL absolute alcohol made up to 83 mL with distilled water. […] In order to expose the left middle cerebral artery, a cut was made in the temporal muscle. The tip of the coronoid process of mandible was excised as well and removed with a fine rongeur. Craniectomy was made with a dental drill at the junction between the median wall and the roof of the inferotemporal fossa. The dura matter was opened carefully using a 27 gauge needle. The MCA was permanently occluded by microbipolar coagulation at low power setting, beginning 2-3 mm medial to the olfactory tract between its cortical branch to the rhinal cortex and the laterate striate arteries.
# After coagulation, the MCA was severed with microscissors and divided to ensure complete occlusion. Following this, the temporalis muscle was sutured and laid over the craniectomy site. The skin was closed with a running 3-0 silk suture. A shad craniectomy operation was performed on a parallel group of rats, but without cauterization of the MCA. During the entire surgical operation (20-25 min) in either group, body temperature was maintained at 37 to 38° C. by means of a body-temperature regulator (Kyoristsu, Japan) consisting of a self-regulating heating pad connected to a rectal thermistor. […] The volume of brain tissue incurring damage following ischemia was determined.
# 1 mg/kg immediately after surgery.
# 0.5 mg/kg 2 hours after surgery
# Then multislices T2-weighted images (3000/80) were acquired (5 contiguous slices, 3 mm thick).
# The following MRI parameters were determined for each group of rats:
# The use of contiguous slices allows the conversion-of area units into volume units by simply multiplying the area value by the slice thickness
# [2] = tested on: maximal electroshock seizures in mice; test: Maximal electroshock test (MES test) in mice; format: in vivo, mouse; conditions: 100 mg/kg
# Description: The MES test is a classical model to indicate efficacy for partial and generalized seizures in humans. The agents' mechanism of action is via their ability to prevent the spread of seizures. Some agents, however, that prevent seizure spread have the side effect of lowering seizure threshold. These agents therefore have both proconvulsive and anticonvulsive side effects.
# MCA-occluded Wistar rats [3] = tested on: MCA-occluded Wistar rats; remark: listed apart in the source
# Procedure: as §1
# After coagulation, the MCA was severed with microscissors and divided to ensure complete occlusion. Following this, the temporalis muscle was sutured and laid over the craniectomy site. The skin was closed with a running 3-0 silk suture. A shad craniectomy operation was performed on a parallel group of rats, but without cauterization of the MCA. […] The volume of brain tissue incurring damage following ischemia was determined. […]
# [4] = tested on: haloperidol-induced catalepsy in mice; test: Reversal of haloperidol-induced catalepsy in mice; format: in vivo, mouse; conditions: peak effect at 7.5-10 mg/kg, 3 hours after haloperidol
# Procedure: All drugs were administered i.p. in a volume of 0.2 mL. Two hours later, haloperidol was injected s.c. at a dose of 6 mg/kg in a volume of 0.1-0.2 mL. Motor coordination tests were made at 3 hours after giving haloperidol, that is, 5 hours after administering the presumed protective drugs.
# Motor coordination tests and rigidity were quantified according to three different parameters: (a) ability to walk the length of a horizontal rod, 80 cm-long; (b) ability to climb down, face down, a vertical rod, 80 cm-long; (c) duration of immobility in an unnatural sitting posture whereby the abdomen of the mouse is pressed against a “wall.” Full performance as in haloperidol-untreated mice is given the score of 4 in each test, or a total of 12 in all tests. Poor performance is given a score from 1 to 3.
# [5] = tested on: crush-injured rat optic nerve; conditions: rats, 2 mg/kg i.p. immediately after optic nerve crush
# Description: At short terms, metabolic measurements were monitored in terms of the mitochondrial NADH/NAD ratio, which depends on the activity of the electron transport system, and thus indicate levels of energy production.
# Monitoring of the intramitochondrial NADH redox state is based on the fact that NADH, unlike the oxidized form NAD^+, fluoresces when illuminated at […]. A flexible Y-shaped bundle of optic fibers (light guide) was used to transmit the light to and from the optic nerve. […] Changes in the reflected light were correlated with changes in tissue absorption caused by hemodynamic effects and with movements of the optic nerve secondary to alterations in arterial blood pressure and nerve volume.
# Animal utilization was in accord with the ARVO Resolution on the use of animals in research. […] With the animal's head held in place by a head holder, a lateral canthotomy was performed under a binocular operating microscope and the conjuctiva was incised lateral to the cornea.
# [6] = tested on: neonatal rat cerebellum cell cultures; conditions: for Percent Protection: after subtraction of solvent effect
# Procedure: Procedures: cultures of mechanically dissociated neonatal rat cerebellum. […] The cerebella are then dissociated after 20-25 passages through a sterile 13 gauge, 10 cm long stainless steel needle attached to a 5 ml syringe with an inserted 45 μm pore size nylon sieve. The dissociated cells are centrifuged at 200 g for 5 minutes, the supernatant discarded and the cells resuspended in enriched medium. The cell viability is determined by the trypan blue exclusion test. […] After 4 days in culture, the media are replaced with media containing the desired test compounds. Experiments are done in duplicate and repeated 2 or 3 times. […] Nerve cell survival is evaluated by phase contrast microscopy and trypan blue staining after 24 h.
# Values, expressed as the percent of untreated controls, represent the average of 2 experiments run in duplicate for culture experiments, and the mean±SEM of 4 animals for ischemia. The percent protection value is the effect of the test compound after subtraction of the solvent effect.
# [7] = tested on: Metrazol seizure threshold in mice; test: Timed Intravenous Infusion of Metrazol test; format: in vivo, mouse; conditions: 141 mg/kg
# Procedure: Timed Intravenous Infusion of Metrazol Test. This test measures the minimal seizure threshold of each animal. Metrazol is infused at 0.185 mg/ml into the tail veins of mice.
# [8] = tested on: anoxia-induced hyperactive syndrome in juvenile rats; test: Anoxia-induced hyperactive syndrome in juvenile rats; format: in vivo, rat; conditions: 0.5 mg/kg/day to nursing mother
# Procedure: Anoxia was performed on rat pups on the first post-natal day. They were placed in a glass chamber and exposed to 100% nitrogen for 25 minutes. They were resuscitated by intermittent massage softly applied to the chest and then returned to their respective mothers. Control rats received the same treatment but with air instead of nitrogen.
# Locomotion was measured in 6 fully computerized cages (28×28 cm) by recording the number of crossings over a given period of time. Crossings of grid infrared beams at 4-cm intervals initiated electrical impulses which fed a counter. Recordings of motor activity were made at the ages of 15 and 20 days, over a period of 15 minutes.
# [9] = tested on: passive avoidance response in young rats; test: Passive avoidance test in young rats (memory); format: in vivo, rat; conditions: Protocol B (0.5 mg/kg/day), anoxia-lesioned rats
# Description: The effect of R(+)-PAI and S(−)-PAI on the improvement or restoration of memory was investigated in the passive avoidance test. If the drug is effective, it increases the latency of response to enter a dark compartment or chamber where an electroshock has been experienced earlier by the rat being tested. The latency of the maximal response is 300 seconds.
# [10] = tested on: amphetamine-induced stereotype behavior in senescent rats; test: Amphetamine-induced stereotype behavior in senescent rats; format: in vivo, rat; conditions: control senescent rats, 0.5 mg/kg/day in drinking water, amphetamine 0.5 mg/kg s.c.
# Procedure: 45 minutes later, lateral head movements were counted.
# [11] = tested on: MPTP-induced striatal DA and DOPAC depletions in mice; test: Suppression of MPTP-induced dopaminergic toxicity (striatal DA and DOPAC); format: in vivo, mouse; conditions: PAI […] i.p., deprenyl 5 mg/kg i.p., 5 days
# [12] = pretreatment 1 h before MPTP 30 mg/kg s.c.
smiles,measurement,setting,value
"C#CCN[C@@H]1CCc2ccccc21.CS(=O)(=O)O [(R)-PAI Mesylate, R-(+)-N-propargyl-1-aminoindan mesylate]","Infarct size, MEAN ± SD","MCA-occluded Wistar rats [1]; Table 21, n=9, MRI T2 scan 48 h after MCA-O, 1.0, 0.5, 1.0 mg/kg ip at 0, 2, 24 hrs",163.5 ± 43.9 mm^3
same,reduction of infarct size,"MCA-occluded Wistar rats [1]; Table 21, n=9 vs 10 untreated",[R](+)PAI Mesylate reduces infarct size by 40% significantly
same,"Infarct size, MEAN + SD","MCA-occluded Wistar rats [1]; Table 22, n=5, MRI 48 hrs after MCA-Occlusion",172 ± 28 mm^3
same,reduction of infarct size,"MCA-occluded Wistar rats [1]; Table 22, n=5 vs 6 untreated MCAO rats, mesylate",36% and 36.3%
same,infarct size as % of that in untreated animals,MCA-occluded Wistar rats [1]; n=9 vs 10 untreated,about 60%
same,mice protected,[2],one out of three
same,"Neurological Score, MEAN + SD","MCA-occluded Wistar rats [3]; n=5, 24 hrs after MCA-Occlusion, scale 0-13",2.78 ± 1.3
same,reduction of neurological score,"MCA-occluded Wistar rats [3]; n=5 vs 6 untreated MCAO rats, mesylate",54% and 53.7%
same,peak activity score as % of saline control,[4],94%
same,effect on injury-induced reduction in energy production (NADH response to anoxia),[5],blocked the injury-induced reduction in energy production
same,Surviving Cells (percent of untreated controls),[6]; 0.01 μM + NMDA,12
same,Percent Protection,[6]; 0.01 μM + NMDA,2
same,Surviving Cells (percent of untreated controls),[6]; 1.00 μM + NMDA,22
same,Percent Protection,[6]; 1.00 μM + NMDA,12
same,Surviving Cells (percent of untreated controls),[6]; 10.00 μM + NMDA,37
C#CCN[C@H]1CCc2ccccc21 [(S)-PAI Mesylate],mice protected,[2],three out of three
same,effect on time to first focal seizure and onset of clonus (proconvulsive activity),[7],reduces the time
C#CCN[C@H]1CCc2ccccc21 [S(−)PAI],numbers of crossings of infrared beam grid over 15 minutes,[8]; 15-day old anoxia-lesioned rats,334 ± 196(5)
same,numbers of crossings of infrared beam grid over 15 minutes,[8]; 20-day old anoxia-lesioned rats,778 ± 232(6)
same,latency After Electroshock,[9],112 ± 112 s
same,latency Before Electroshock,[9],48 ± 19 s
same,Stereotype Behavior Rating (lateral head movements in 1 minute),[10],94 ± 18
same,striatal DA,[11]; drug alone,174.0 ± 4.8 ng/mg protein
same,striatal DOPAC,[11]; drug alone,7.5 ± 0.2 ng/mg protein
same,striatal DA,[11]; [12],53.4 ± 6.9 ng/mg protein
same,striatal DOPAC,[11]; [12],7.0 ± 0.6 ng/mg protein
